Experimental data: patent US6448260B2, “Endothelin receptor antagonists” (SmithKline Beecham Corporation, priority 1991, dated 2002)
Counter-ions that a name gives are not always drawn.

SMILES	melting point
COc1ccc([C@@H]2c3ccccc3[C@H](c3ccccc3)[C@H]2C(=O)O)cc1 (racemic) [Example 1, (1RS,2RS,3SR)-1-(4-Methoxyphenyl)-3-phenylindane-2-carboxylic acid]	164 to 166 °C
COc1cccc([C@@H]2c3ccccc3[C@H](c3ccc4c(c3)OCO4)[C@H]2C(=O)O)c1 (racemic) [Example 5, (1RS, 2SR, 3SR)-1-(3-Methoxyphenyl)-3-(3,4-methylenedioxyphenyl)indane-2-carboxylic acid]	131 to 133 °C
CCCOc1cccc2c1[C@@H](c1ccc3c(c1)OCO3)[C@@H](C(=O)O)[C@H]2c1ccc(OC)cc1OCC(=O)O (racemic) [Example 91, (1RS, 2RS, 3RS)-1-(2-Carboxymethoxy-4-methoxyphenyl]-3-(3,4-methylenedioxyphenyl)-4-(prop-1-yloxy)indane-2-carboxylic acid]	201 to 206 °C
CCCOc1ccc2c(c1)[C@H](c1ccc(OC)cc1OCC(=O)[O-])[C@@H](C(=O)O[C@@H](C)OC(=O)C(C)(C)OC)[C@@H]2c1ccc2c(c1)OCO2.[Na+] (racemic)	178 to 181 °C (dec.)
COc1ccc([C@H]2c3ccccc3[C@@H](c3ccc(OC)c(OC)c3)[C@@H]2C(=O)O)cc1 (racemic) [Example 26, (1RS, 2RS, 3SR)-1-(3,4-Dimethoxyphenyl)-3-(4-methoxyphenyl)indane-2-carboxylic acid]	126 to 128 °C
O=C(O)[C@H]1[C@H](c2ccc3c(c2)OCO3)c2ccc(OCc3ccccc3)cc2[C@@H]1c1ccc2c(c1)OCO2 (racemic) [Example 116, (1RS, 2SR, 3SR)-5-Benzyloxy-1,3-bis(3,4-methylenedioxyphenyl)indane-2 carboxylic acid]	191 to 193 °C
O=C(O)[C@H]1[C@H](c2ccc3c(c2)OCO3)c2ccccc2[C@@H]1c1ccccc1 (racemic) [Example 8, (1RS, 2RS, 3SR)-1-(3,4-Methylenedioxyphenyl)-3-phenylindane-2-carboxylic acid]	186 to 187 °C
O=C(O)C1[C@H](c2ccccc2)c2ccccc2[C@H]1c1ccccc1 (racemic) (as salt: sodium) [Example 21, (1RS, 3RS)-1,3-Diphenylindane-2-carboxylic acid]	220 to 222 °C (dec.)
CCCOc1ccc2c(c1)[C@H](c1ccc(OC)cc1OC(C)C)[C@@H](C(=O)O)[C@@H]2c1ccc2c(c1)OCO2 (racemic) [Example 42, (1RS, 2SR, 3RS)-3-[4-Methoxy-2-(prop-2-yloxy)phenyl]-1-(3,4-methylenedioxyphenyl)-5-(prop-1-yloxy)indane-2-carboxylic acid]	75 to 79 °C
CCOc1ccc([C@@H]2c3ccccc3[C@H](c3ccc4c(c3)OCO4)[C@H]2C(=O)O)cc1 (racemic) [Example 73, (1RS, 2SR, 3SR)-1-(4-Ethoxyphenyl)-3-(3,4-methylenedioxyphenyl)indane-2-carboxylic acid]	169 to 170 °C
CCc1ccc([C@@H]2c3ccccc3[C@H](c3ccccc3)[C@H]2C(=O)O)cc1 (racemic) [Example 20, (1RS, 2RS, 3SR)-1-(4-Ethylphenyl)-3-phenylindane-2-carboxylic acid]	163 to 164 °C
COc1ccc([C@@H]2c3cc(O)ccc3[C@H](c3c[nH]c4ccccc34)[C@H]2C(=O)O)cc1 (racemic) [Example 109, (1RS, 2SR, 3RS)-5-Hydroxy-1-(3-indolyl)-3-(4-methoxyphenyl)indane-2-carboxylic acid]	138 to 140 °C
COc1cc(OC)c([C@H]2c3ccc(O)cc3[C@@H](c3ccc4c(c3)OCO4)[C@@H]2C(=O)O)c(OC)c1 (racemic) [Example 78, (1RS, 2SR, 3RS)-5-Hydroxy-3-(3,4-methylenedioxyphenyl)-1-(2,4,6-trimethoxyphenyl)indane-2-carboxylic acid]	225 to 226 °C
CCCOc1ccc2c(c1)[C@H](c1ccc(OCC)cc1OCC(=O)O)[C@@H](C(=O)O)[C@@H]2c1ccc2c(c1)OCO2 (racemic) [Example 96, (1RS, 2SR, 3RS)-3-(2-Carboxymethoxy-4-ethyloxyphenyl)-1-(3,4-methylenedioxyphenyl)-5-(prop-1-yloxy)indane-2-carboxylic acid]	194 to 196 °C
COc1ccc([C@@H]2c3cc(OC)ccc3[C@@H](c3ccc4c(c3)OC(OC)O4)[C@H]2C(=O)O)cc1 (mixture of isomers) [Example 84, (1RS, 2SR, 3RS)-5-Methoxy-3-(4-methoxyphenyl)-1-(2-methoxy4,5-methylenedioxyphenyl)indane-2-carboxylic acid]	149 to 150 °C
